Test results published in ChEMBL document CHEMBL1949508, “The selective cytotoxic activity in breast cancer cells by an anthranilic alcohol-derived acyclic 5-fluorouracil O,N-acetal is mediated by endoplasmic reticulum stress-induced apoptosis” (Eur J Med Chem, 2012).

Legend:
[1] = test system: MCF7; experiment: Antiproliferative activity against human MCF7 cells after 3 days by SRB assay; assay type: functional, cell-based; settings: MCF7, 72 h
[2] = test system: MCF-10A; experiment: Cytotoxicity against human MCF10A cells after 3 days by SRB assay; assay type: cell-based; settings: 72 h
[3] = test system: MCF7; experiment: Antiproliferative activity against human MCF7 cells assessed as cell viability at 1.09 uM after […] by SRB assay (reference value: 96.35 +/- 1.32%); assay type: functional; settings: read-out: Activity
[4] = Antiproliferative activity against human MCF10A cells assessed as viable cells at 37.67 uM after […] by SRB assay (reference value: 98.46 +/- 3.2%); assay type: cell-based, MCF-10A; settings: read-out: Activity
[5] = test system: MCF7; experiment: Induction of apoptosis in human MCF7 cells assessed as apoptotic cells at 1.09 uM after 48 hrs by annexinV-FITC/PI-based flow cytometry relative to control; assay type: functional
[6] = test system: MCF-10A; experiment: Induction of apoptosis in human MCF10A cells assessed as apoptotic cells at 37.67 uM after 48 hrs by annexinV-FITC/PI-based flow cytometry relative to control; assay type: cell-based
[7] = test system: MCF7; experiment: Induction of apoptosis in human MCF7 cells assessed as early apoptotic cells at 1.09 uM after 48 hrs by annexinV-FITC/PI-based flow cytometry (reference value: 3.27 +/- 0.67%); assay type: functional
[8] = test system: MCF-10A; experiment: Induction of apoptosis in human MCF10A cells assessed as early apoptotic cells at 37.67 uM after 48 hrs by annexinV-FITC/PI-based flow cytometry (reference value: 0.73 +/- 0.23%); assay type: cell-based
[9] = test system: MCF7; experiment: Induction of apoptosis in human MCF7 cells assessed as late apoptotic cells at 1.09 uM after 48 hrs by annexinV-FITC/PI-based flow cytometry (reference value: 0.11 +/- 0.02%); assay type: functional
[10] = test system: MCF-10A; experiment: Induction of apoptosis in human MCF10A cells assessed as late apoptotic cells at 37.67 uM after 48 hrs by annexinV-FITC/PI-based flow cytometry (reference value: 0.21 +/- 0.1%); assay type: cell-based
[11] = test system: MCF7; experiment: Induction of necrosis in human MCF7 cells assessed as necrotic cells at 1.09 uM after 48 hrs by annexinV-FITC/PI-based flow cytometry (reference value: 0.27 +/- 0.01%); assay type: functional
[12] = test system: MCF-10A; experiment: Induction of necrosis in human MCF10A cells assessed as necrotic cells at 37.67 uM after 48 hrs by annexinV-FITC/PI-based flow cytometry (reference value: 0.6 +/- 0.13%); assay type: cell-based
[13] = test system: MCF7; experiment: Upregulation of BBC3 gene in human MCF7 cells at 1.09 uM after 48 hrs by microarray hybridization relative to control; assay type: functional
[14] = test system: MCF7; experiment: Upregulation of MTL5 gene in human MCF7 cells at 1.09 uM after 48 hrs by microarray hybridization relative to control; assay type: functional
[15] = test system: MCF7; experiment: Upregulation of BMF gene in human MCF7 cells at 1.09 uM after 48 hrs by microarray hybridization relative to control; assay type: functional
[16] = test system: MCF7; experiment: Upregulation of BNIP3L gene in human MCF7 cells at 1.09 uM after 48 hrs by microarray hybridization relative to control; assay type: functional
[17] = test system: MCF7; experiment: Upregulation of BNIP3 gene in human MCF7 cells at 1.09 uM after 48 hrs by microarray hybridization relative to control; assay type: functional
[18] = test system: MCF7; experiment: Upregulation of GADD45A gene in human MCF7 cells at 1.09 uM after 48 hrs by microarray hybridization relative to control; assay type: functional
[19] = test system: MCF7; experiment: Upregulation of CARD14 gene in human MCF7 cells at 1.09 uM after 48 hrs by microarray hybridization relative to control; assay type: functional
[20] = test system: MCF7; experiment: Upregulation of GADD45B gene in human MCF7 cells at 1.09 uM after 48 hrs by microarray hybridization relative to control; assay type: functional
[21] = test system: MCF7; experiment: Upregulation of DNASE1 gene in human MCF7 cells at 1.09 uM after 48 hrs by microarray hybridization relative to control; assay type: functional
[22] = test system: MCF7; experiment: Upregulation of NOXA gene in human MCF7 cells at 1.09 uM after 48 hrs by microarray hybridization relative to control; assay type: functional
[23] = test system: MCF7; experiment: Downregulation of UNC5C gene in human MCF7 cells at 1.09 uM after 48 hrs by microarray hybridization relative to control; assay type: functional
[24] = test system: MCF7; experiment: Downregulation of CARD9 gene in human MCF7 cells at 1.09 uM after 48 hrs by microarray hybridization relative to control; assay type: functional
[25] = test system: MCF7; experiment: Downregulation of AVEN gene in human MCF7 cells at 1.09 uM after 48 hrs by microarray hybridization relative to control; assay type: functional
[26] = test system: MCF7; experiment: Downregulation of BCL2 gene in human MCF7 cells at 1.09 uM after 48 hrs by microarray hybridization relative to control; assay type: functional
[27] = test system: MCF7; experiment: Downregulation of BAG2 gene in human MCF7 cells at 1.09 uM after 48 hrs by microarray hybridization relative to control; assay type: functional
[28] = test system: MCF7; experiment: Downregulation of CD14 gene in human MCF7 cells at 1.09 uM after 48 hrs by microarray hybridization relative to control; assay type: functional
[29] = test system: MCF7; experiment: Downregulation of E2F1 gene in human MCF7 cells at 1.09 uM after 48 hrs by microarray hybridization relative to control; assay type: functional
[30] = test system: MCF7; experiment: Downregulation of […] gene in human MCF7 cells at 1.09 uM after 48 hrs by microarray hybridization relative to control; assay type: functional
[31] = test system: MCF7; experiment: Downregulation of TP5313 gene in human MCF7 cells at 1.09 uM after 48 hrs by microarray hybridization relative to control; assay type: functional

COC(CN(c1ccccc1CO)S(=O)(=O)c1ccccc1N)n1cc(F)c(=O)[nH]c1=O (racemic)
IC50 [1]: 1.09 µM
IC50 [2]: 37.7 µM
viability at 1.09 µM [3]: 6.35%
viability at 37.67 µM [4]: 30.9%
Activity [5]: 90.73%
Activity [6]: 19.86%
Activity [7]: 13.73%
Activity [8]: 2.57%
Activity [9]: 77.4%
Activity [10]: 17.29%
Activity [11]: 2.52%
Activity [12]: 49.24%
fold change (FC) [13]: 3.78
fold change (FC) [14]: 3.75
fold change (FC) [15]: 3
fold change (FC) [16]: 2.84
fold change (FC) [17]: 2.65
fold change (FC) [18]: 2.54
fold change (FC) [19]: 2.34
fold change (FC) [20]: 2.2
fold change (FC) [21]: 2.07
fold change (FC) [22]: 2.02
fold change (FC) [23]: -2.01
fold change (FC) [24]: -2.11
fold change (FC) [25]: -2.21
fold change (FC) [26]: -2.26
fold change (FC) [27]: -2.32
fold change (FC) [28]: -2.61
fold change (FC) [29]: -2.61
fold change (FC) [30]: -2.62
fold change (FC) [31]: -2.68
